# Test system: ataxia symptoms in subjects with spinocerebellar ataxia (SCA)
# Experiment: Phase IIb/III randomized, double-blind, placebo-controlled trial of BHV-4157 in SCA (BHV4157-201), 8-week randomization phase: SARA
# Format: in vivo, human
# Design: key to Total SARA change / Total SARA, Δ Btw Groups / Axial SARA [#1-4] change / Appendicular SARA [4-8] change / Total SARA change (LSmeans) / Gait [#1] change (LSmeans) / Axial Items [#1-4] change (LSmeans) / Appendicular [#5-8] change (LSmeans) / Change in Total SARA Score / Axial Items [1-4] change / Appendicular Items [5-8] change / ΔSARA (between groups): SARA points; total scale 0 (no ataxia) to 40 (severe)
# Settings: for Total SARA, Δ Btw Groups / ΔSARA (between groups): BHV-4157 vs placebo; for Total SARA, week 8 StdChg / Total SARA, week 8 Δ Mean: all subjects
# Method: One measure for assessment of the methods of the present invention is by using the Scale for the Assessment and Rating of Ataxia (“SARA”).
# The SARA was developed as a clinician-administered instrument to measure severity of symptoms in patients with SCA. While there are multiple scales available, the SARA has been tested in many patients with SCA.
# The SARA scores range from 0 (no ataxia) to 40 (severe). The SARA takes approximately 15 minutes to administer. Assessed items include: • Gait (rated 0 to 8) • Stance (0 to 6) • Sitting (0 to 4) • Speech disturbance (0 to 6) • Finger chase (0 to 4) • Nose-finger test (0 to 4) • Fast alternating hand movements (0 to 4) • Heel-shin slide (0 to 4)
# Once each of the 8 categories has been assessed, the total score is calculated to determine the severity of ataxia. For motor activities of the four extremities (items 5-8), assessments are performed bilaterally and the mean values are used to obtain the total score.
# The purpose of this study is to compare the efficacy of BHV-4157 versus placebo on ataxia symptoms in subjects with spinocerebellar ataxia (SCA).
# Study Type: Interventional Study Design: Allocation: Randomized • Intervention Model: Parallel Assignment • Masking: Quadruple (Participant, Care Provider, Investigator, Outcomes Assessor) • Primary Purpose: Treatment • Official Title: A Phase IIb/III, Randomized, Double-blind, Placebo-controlled Trial of BHV-4157 in Adult Subjects With Spinocerebellar Ataxia Primary Outcome Measures: • To measure the change in total score on the Scale for Assessment and Rating of Ataxia (SARA) [Time Frame: The change in total score from baseline to week 8.] Secondary Outcome Measures: • To assess the safety and tolerability of BHV-4157 in subjects with SCA by measuring the frequency and severity of adverse events and discontinuations of adverse events. [Time Frame: Baseline to week 8.] Measured by the frequency and severity of adverse events and discontinuations of adverse events. • To compare efficacy of BHV-4157 with placebo on patient impression of benefit via use of the PGI-C [Time Frame: Baseline to Week 8] Change in PGI-C score
# The study is a Phase IIb/III, multicenter, randomized, double-blind, 2-arm placebo-controlled parallel-group study designed to assess safety, tolerability, and efficacy signals in a population of patients with Spinocerebellar Ataxia (SCA). Subjects will be randomized to receive placebo (QD) or BHV-4157 (140 mg QD), stratified by diagnosis (genotype) and baseline severity (Gait Item of the SARA of ≤4 and >4). Subjects with SCA3 genotype will be limited to comprise up to approximately 10% of the total population so that this most common type of SCA is not over-represented.
# Dosing will continue for 8 weeks. Subjects will return to the clinic two weeks after discontinuing study medication for a follow-up safety visit. In addition, subjects completing the Randomization Phase will be offered 48 weeks of open-label treatment as long as the PI believes open-label treatment offers an acceptable risk-benefit profile. Subjects who agree to enter the Extension Phase will not be required to wash-out of drug or complete the follow-up safety visit, but instead should continue dosing as specified in the extension phase. Subjects entering the Extension Phase would have their first Extension Visit four weeks after the Week 8 Randomization Phase visit. If there is a delay of two weeks or more in dosing between the Randomization Phase and the Extension Phase, subjects will be required to complete an Extension Baseline Visit. Thereafter, subjects will undergo visits every fourth week through Week 12 of this phase. Then subjects will undergo visits every 12 weeks up to Week 48 of this phase.
# [1] = Females Subjects in Experienced Site Group, n = 17
# [2] = Females Subjects in Stable Subgroup, n = 18
# [3] = NOT-STABLE subjects, n = 28, week 8
# [4] = STABLE subjects, n = 34, week 8
# [5] = experienced sites/raters population
# [6] = experienced sites/raters population, n = 37, week 8
structure (smiles),measurement,setting,value
"CN(CC(=O)Nc1nc2ccc(OC(F)(F)F)cc2s1)C(=O)CNC(=O)CN [BHV-4157, troriluzole]","Responder Analysis, ≥3 points in All Subjects (n = 67)",Females,32%
same,"Responders, ≥1 point",[1],71%
same,"Responders, ≥3 points",[1],41%
same,"Responders, ≥1 point",[2],67%
same,"Responders, ≥3 points",[2],39%
same,Change in Total SARA Score,"Females, All Subjects, n = 31, week 8",−1.08
same,Change in Total SARA Score,"Females, Experience of Sites, n = 20",−1.15
same,Change in Total SARA Score,"Females, STABLE Subgroup, n = 18",−1.33
same,"Responder Analysis, ≥3 points in Stable Subjects (n = 38)","Females, printed on line Experience of Sites",35%
same,"Responder Analysis, ≥3 points at Experienced sites (n = 33)","Females, printed on line STABLE Subgroup",39%
same,Appendicular SARA [4-8] change,[3],−0.15
same,Axial SARA [#1-4] change,[3],−0.46
same,Total SARA change,"STABLE subjects (screening-to-baseline SARA within 1 point), n = 34, 140 mg QD, baseline to week 8",−0.90
same,"Total SARA, Δ Btw Groups","STABLE subjects, week 8",−0.39
same,Appendicular SARA [4-8] change,[4],−0.36
same,Axial SARA [#1-4] change,[4],−0.27
same,"Responders, Response Definition ≥3 points (Total SARA)","Table 1, printed on line Total SARA STABLE, week 8",24%
same,"Responders, Response Definition ≥ 1 point (Total SARA)","Table 1, printed on line Total SARA UNSTABLE, week 8",59%
same,Total SARA change,"UNSTABLE / NOT-STABLE subjects, n = 28, 140 mg QD, week 8",−0.87
same,"Total SARA, Δ Btw Groups","UNSTABLE subjects, week 8",0.62
same,"Total SARA, week 8 StdChg","n = 63, May-18",0.459
same,"Total SARA, week 8 Δ Mean","n = 63, May-18 analysis, listed as BHV",−0.810
same,"Total SARA, week 8 Δ Mean","n = 63, May-18 analysis, listed as BHV5157",−0.81
same,"Total SARA, week 8 StdChg","n = 63, Sep-17 analysis",0.459
same,"Total SARA, week 8 Δ Mean","n = 63, Sep-17 analysis",−0.810
same,"Responders, Response Definition ≥1 point",[5],51.4%
same,"Responders, Response Definition ≥3 points",[5],21.6%
same,Appendicular [#5-8] change (LSmeans),[6],−0.52
same,Axial Items [#1-4] change (LSmeans),[6],−0.47
same,Gait [#1] change (LSmeans),[6],−0.14
same,Total SARA change (LSmeans),[6],−1.37
same,"Responder Analysis, ≥3 points in All Subjects (n = 65)",lighter median,33%
same,Change in Total SARA Score,"lighter median (≤76.4 kg), all lighter subjects, n = 27, week 8",−1.38
same,ΔSARA (between groups),"lighter median, EXP Sites",−1.03
same,Change in Total SARA Score,"lighter median, EXP Sites, n = 18",−1.64
same,ΔSARA (between groups),"lighter median, Stable Subgroup",−0.83
same,Change in Total SARA Score,"lighter median, Stable Subgroup, n = 19",−1.18
same,Appendicular Items [5-8] change,"lighter median, n = 27",−0.69
same,Axial Items [1-4] change,"lighter median, n = 27",−0.85
same,"Responder Analysis, ≥3 points in Stable Subjects (n = 36)","lighter median, printed on line EXP Sites",39%
same,"Responder Analysis, ≥3 points at Experienced sites (n = 36)","lighter median, printed on line Stable Subgroup",26%

# From patent US12102618B2, “Use of riluzole prodrugs to treat ataxias” (Biohaven Therapeutics Ltd., priority 2017, dated 2024)
